# In patent US9326506B2, “Preparation method, agricultural composition and applications of natural brassinolide analogs” (CHENGDU NEWSUN CROPSCIENCE CO., LTD, priority 2012, dated 2016):
# Tested on: rice
# Test: Low temperature assay on rice seedlings
# Format: in vivo
# Experimental: According to a low temperature assay, we measured parameters including plant height, number of leaf, area of leaf, number of tiller, weight of root at low temperature to completely determine effects of the natural brassinolide analogues on the resistance to low temperature of a plant.
# The natural brassinolide analogues, BR1, BR2, BR3, BR4, BR5 and BR6, used herein, were those prepared by the method of Example 1. Respectively the analogues were dissolved into 95% (V/V) ethanol solution, and then diluted with pure water to 1 mg/L, 0.1 mg/L, 0.01 mg/L, 0.001 mg/L and 0.0001 mg/L. In addition, pure water was used as a control.
# After rice seeds were disinfected by using 5% sodium hypochlorite solution treatment, they were rinsed with distilled water until their pH>7, placed into a petri dish in a dark incubator, and cultured by using water at 30° C.±2° C. for 9 days. Then respectively the nine-day-old etiolated seedlings of rice were immersed in the above solutions containing different concentrations of the natural brassinolide analogues or pure water, and cultured at the temperature of 1° C., 2° C., 3° C., 4° C. and 5° C. for 24 hr. The parameters including plant height, area of leaf and weight of root after 3, 6, 9 and 12 days and number of leaf and number of tiller after 12 days were measured.
compound,measurement,setting,value
CC(C)(O)CC[C@@H](O)[C@](C)(O)[C@H]1CC[C@@]2(O)[C@@H]3CC(=O)[C@@H]4C[C@@H](O)[C@@H](O)C[C@]4(C)[C@H]3CC[C@]12C [BR6],Area of leaf,"0.0001 mg/l, 1 °C, 3 days",10 cm^2
same,Height,"0.0001 mg/l, 1 °C, 3 days",7.1 cm
same,Weight of root,"0.0001 mg/l, 1 °C, 3 days",2.8 g
same,Area of leaf,"0.0001 mg/l, 1 °C, 6 days",11.2 cm^2
same,Height,"0.0001 mg/l, 1 °C, 6 days",7.2 cm
same,Weight of root,"0.0001 mg/l, 1 °C, 6 days",3.1 g
same,Area of leaf,"0.0001 mg/l, 1 °C, 9 days",12.4 cm^2
same,Height,"0.0001 mg/l, 1 °C, 9 days",7.4 cm
same,Weight of root,"0.0001 mg/l, 1 °C, 9 days",3.5 g
same,Area of leaf,"0.0001 mg/l, 1 °C, 12 days",13 cm^2
same,Height,"0.0001 mg/l, 1 °C, 12 days",7.4 cm
same,Number of leaf,"0.0001 mg/l, 1 °C, 12 days",3
same,Number of tiller,"0.0001 mg/l, 1 °C, 12 days",3
same,Weight of root,"0.0001 mg/l, 1 °C, 12 days",3.9 g
same,Area of leaf,"0.0001 mg/l, 2 °C, 3 days",10.2 cm^2
same,Height,"0.0001 mg/l, 2 °C, 3 days",7.1 cm
same,Weight of root,"0.0001 mg/l, 2 °C, 3 days",2.8 g
same,Area of leaf,"0.0001 mg/l, 2 °C, 6 days",11.7 cm^2
same,Height,"0.0001 mg/l, 2 °C, 6 days",7.2 cm
same,Weight of root,"0.0001 mg/l, 2 °C, 6 days",3.0 g
same,Area of leaf,"0.0001 mg/l, 2 °C, 9 days",12.6 cm^2
same,Height,"0.0001 mg/l, 2 °C, 9 days",7.3 cm
same,Weight of root,"0.0001 mg/l, 2 °C, 9 days",3.2 g
same,Area of leaf,"0.0001 mg/l, 2 °C, 12 days",13 cm^2
same,Height,"0.0001 mg/l, 2 °C, 12 days",7.5 cm
same,Number of leaf,"0.0001 mg/l, 2 °C, 12 days",3
same,Number of tiller,"0.0001 mg/l, 2 °C, 12 days",3
same,Weight of root,"0.0001 mg/l, 2 °C, 12 days",3.9 g
same,Area of leaf,"0.0001 mg/l, 3 °C, 3 days",10.4 cm^2
same,Height,"0.0001 mg/l, 3 °C, 3 days",7.1 cm
same,Weight of root,"0.0001 mg/l, 3 °C, 3 days",2.5 g
same,Area of leaf,"0.0001 mg/l, 3 °C, 6 days",12 cm^2
same,Height,"0.0001 mg/l, 3 °C, 6 days",7.2 cm
same,Weight of root,"0.0001 mg/l, 3 °C, 6 days",2.6 g
same,Area of leaf,"0.0001 mg/l, 3 °C, 9 days",12.6 cm^2
same,Height,"0.0001 mg/l, 3 °C, 9 days",7.5 cm
same,Weight of root,"0.0001 mg/l, 3 °C, 9 days",2.9 g
same,Area of leaf,"0.0001 mg/l, 3 °C, 12 days",13.2 cm^2
same,Height,"0.0001 mg/l, 3 °C, 12 days",7.6 cm
same,Number of leaf,"0.0001 mg/l, 3 °C, 12 days",3
same,Number of tiller,"0.0001 mg/l, 3 °C, 12 days",2
same,Weight of root,"0.0001 mg/l, 3 °C, 12 days",2.9 g
same,Area of leaf,"0.0001 mg/l, 4 °C, 3 days",10.6 cm^2
same,Height,"0.0001 mg/l, 4 °C, 3 days",7.1 cm
same,Weight of root,"0.0001 mg/l, 4 °C, 3 days",2.5 g
same,Area of leaf,"0.0001 mg/l, 4 °C, 6 days",12.2 cm^2
same,Height,"0.0001 mg/l, 4 °C, 6 days",7.3 cm
same,Weight of root,"0.0001 mg/l, 4 °C, 6 days",2.6 g
same,Area of leaf,"0.0001 mg/l, 4 °C, 9 days",13 cm^2
same,Height,"0.0001 mg/l, 4 °C, 9 days",7.5 cm
same,Weight of root,"0.0001 mg/l, 4 °C, 9 days",2.8 g
same,Area of leaf,"0.0001 mg/l, 4 °C, 12 days",13.4 cm^2
same,Height,"0.0001 mg/l, 4 °C, 12 days",7.7 cm
same,Number of leaf,"0.0001 mg/l, 4 °C, 12 days",3
same,Number of tiller,"0.0001 mg/l, 4 °C, 12 days",2
same,Weight of root,"0.0001 mg/l, 4 °C, 12 days",2.9 g
same,Area of leaf,"0.0001 mg/l, 5 °C, 3 days",10.6 cm^2
same,Height,"0.0001 mg/l, 5 °C, 3 days",7.2 cm
same,Weight of root,"0.0001 mg/l, 5 °C, 3 days",2.6 g
same,Area of leaf,"0.0001 mg/l, 5 °C, 6 days",12.8 cm^2
same,Height,"0.0001 mg/l, 5 °C, 6 days",7.5 cm
same,Weight of root,"0.0001 mg/l, 5 °C, 6 days",2.7 g
same,Area of leaf,"0.0001 mg/l, 5 °C, 9 days",13.6 cm^2
same,Height,"0.0001 mg/l, 5 °C, 9 days",7.5 cm
same,Weight of root,"0.0001 mg/l, 5 °C, 9 days",2.9 g
same,Area of leaf,"0.0001 mg/l, 5 °C, 12 days",14 cm^2
same,Height,"0.0001 mg/l, 5 °C, 12 days",7.8 cm
same,Number of leaf,"0.0001 mg/l, 5 °C, 12 days",3
same,Number of tiller,"0.0001 mg/l, 5 °C, 12 days",2
same,Weight of root,"0.0001 mg/l, 5 °C, 12 days",3.0 g
same,Area of leaf,"0.001 mg/l, 1 °C, 3 days",10 cm^2
same,Height,"0.001 mg/l, 1 °C, 3 days",6.9 cm
same,Weight of root,"0.001 mg/l, 1 °C, 3 days",2.8 g
same,Area of leaf,"0.001 mg/l, 1 °C, 6 days",11.3 cm^2
same,Height,"0.001 mg/l, 1 °C, 6 days",7.1 cm
same,Weight of root,"0.001 mg/l, 1 °C, 6 days",3.1 g
same,Area of leaf,"0.001 mg/l, 1 °C, 9 days",12.6 cm^2
same,Height,"0.001 mg/l, 1 °C, 9 days",7.3 cm
same,Weight of root,"0.001 mg/l, 1 °C, 9 days",3.4 g
same,Area of leaf,"0.001 mg/l, 1 °C, 12 days",13 cm^2
same,Height,"0.001 mg/l, 1 °C, 12 days",7.3 cm
same,Number of leaf,"0.001 mg/l, 1 °C, 12 days",3
same,Number of tiller,"0.001 mg/l, 1 °C, 12 days",3
same,Weight of root,"0.001 mg/l, 1 °C, 12 days",3.9 g
same,Area of leaf,"0.001 mg/l, 2 °C, 3 days",10.3 cm^2
same,Height,"0.001 mg/l, 2 °C, 3 days",6.9 cm
same,Weight of root,"0.001 mg/l, 2 °C, 3 days",2.8 g
